From patent US11420961B2, “Heterocyclic compounds” (Hoffmann-La Roche Inc., priority 2017, dated 2022)

The compounds below were run against T1, MAGL (Homo sapiens, UniProt Q99685) (assay: 2-AG assay: MAGL inhibitory activity by hydrolysis of 2-arachidonoylglycerol to arachidonic acid, mass spectrometry). Conditions: 2-AG assay (values marked [a]).
T1 sequence (Q99685 1-303): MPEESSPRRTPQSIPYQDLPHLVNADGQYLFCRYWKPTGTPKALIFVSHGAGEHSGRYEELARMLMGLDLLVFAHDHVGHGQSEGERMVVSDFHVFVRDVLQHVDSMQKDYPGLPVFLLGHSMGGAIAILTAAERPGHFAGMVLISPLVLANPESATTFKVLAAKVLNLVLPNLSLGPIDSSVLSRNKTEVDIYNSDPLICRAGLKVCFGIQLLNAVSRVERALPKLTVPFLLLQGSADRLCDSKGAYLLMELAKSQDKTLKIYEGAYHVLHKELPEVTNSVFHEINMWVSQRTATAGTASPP
Assay type: biochemical
Protocol: Alternatively, compounds were profiled for MAGL inhibitory activity by determining the enzymatic activity by following the hydrolysis of the natural substrate, 2-arachidonoylglycerol, resulting in arachidonic acid, which can be followed by mass spectrometry. This assay is hereinafter abbreviated “2-AG assay”.
The 2-AG assay was carried out in 384 well assay plates (PP, Greiner Cat #784201) in a total volume of 20 μL. Compound dilutions were made in 100% DMSO (VWR Chemicals 23500.297) in a polypropylene plate in 3-fold dilution steps to give a final concentration range in the assay from 12.5 μM to […]. 0.25 μL compound dilutions (100% DMSO) were added to 9 μL MAGL in assay buffer (50 mM TRIS (GIBCO, 15567-027), 1 mM EDTA (Fluka, 03690-100 ml), 0.01% (v/v) Tween. After shaking, the plate was incubated for 15 min at RT. To start the reaction, 10 μL 2-arachidonoylglycerol in assay buffer was added. The final concentrations in the assay was […] and 8 μM 2-arachidonoylglyerol. After shaking and 30 min incubation at RT, the reaction was quenched by the addition of 40 μL of acetonitrile containing 4 μM of d8-arachidonic acid. The amount of arachidonic acid was traced by an online SPE system (Agilent Rapidfire) coupled to a triple quadrupole mass spectrometer (Agilent 6460). A C18 SPE cartridge (G9205A) was used in an acetonitrile/water liquid setup. The mass spectrometer was operated in negative electrospray mode following the mass transitions 303.1→259.1 for arachidonic acid and 311.1→267.0 for d8-arachidonic acid. The activity of the compounds was calculated based on the ratio of intensities [arachidonic acid/d8-arachidonic acid].

Row | IC50 [nM] | SMILES
1 | 9.41 | COc1cc(C(c2ccccc2)C2CCN(C(=O)c3ccc4c(c3)NC(=O)CO4)CC2)ccc1OCCF (single isomer, unassigned) [Example 138, 6-[4-[(S or R)-[4-(2-Fluoroethoxy)-3-methoxy-phenyl]-phenyl-methyl]piperidine-1-carbonyl]-4H-1,4-benzoxazin-3-one]
2 | 0.17 | COc1cc(C(c2ccccc2)C2CCN(C(=O)c3ccc4c(c3)NC(=O)CO4)CC2)ccc1OCCF (single isomer, unassigned) [Example 139, 6-[4-[(R or S)-[4-(2-Fluoroethoxy)-3-methoxy-phenyl]-phenyl-methyl]piperidine-1-carbonyl]-4H-1,4-benzoxazin-3-one]
3 | 0.62 | Cn1cc(C(c2ccccc2)C2CCN(C(=O)c3ccc4c(c3)NC(=O)CO4)CC2)cn1 (single isomer, unassigned) [Example 140, 6-[4-[(S or R)-(1-Methylpyrazol-4-yl)-phenyl-methyl]piperidine-1-carbonyl]-4H-1,4-benzoxazin-3-one]
4 | 6.68 | Cn1cc(C(c2ccccc2)C2CCN(C(=O)c3ccc4c(c3)NC(=O)CO4)CC2)cn1 (single isomer, unassigned) [Example 141, 6-[4-[(R or S)-(1-Methylpyrazol-4-yl)-phenyl-methyl]piperidine-1-carbonyl]-4H-1,4-benzoxazin-3-one]
5 | 0.66 | Cn1ccc(C(c2ccccc2)C2CCN(C(=O)c3ccc4c(c3)NC(=O)CO4)CC2)cc1=O (single isomer, unassigned) [Example 142, 6-[4-[(S or R)-(1-Methyl-2-oxo-4-pyridyl)-phenyl-methyl]piperidine-1-carbonyl]-4H-1,4-benzoxazin-3-one]
6 | 79.3 | Cn1ccc(C(c2ccccc2)C2CCN(C(=O)c3ccc4c(c3)NC(=O)CO4)CC2)cc1=O (single isomer, unassigned) [Example 143, 6-[4-[(R or S)-(1-Methyl-2-oxo-4-pyridyl)-phenyl-methyl]piperidine-1-carbonyl]-4H-1,4-benzoxazin-3-one]
7 | 258 | O=C1COc2ccc(C(=O)N3CC(C(c4ccccc4)c4ccccc4)C3)cc2N1 [Example 124, 6-(3-Benzhydrylazetidine-1-carbonyl)-4H-1,4-benzoxazin-3-one]
8 | 85.3 | O=C1COc2ccc(C(=O)N3CC(C(c4ccccc4)c4ccc(C(F)(F)F)cc4)C3)cc2N1 (stereo not drawn) [Example 130, 6-[3-[Phenyl-[4-(trifluoromethyl)phenyl]methyl]azetidine-1-carbonyl]-4H-1,4-benzoxazin-3-one]
9 | 182 | COc1cccc(C(c2ccccc2)C2CN(C(=O)c3ccc4c(c3)NC(=O)CO4)C2)c1 (stereo not drawn) [Example 131, 6-[3-[(3-Methoxyphenyl)-phenyl-methyl]azetidine-1-carbonyl]-4H-1,4-benzoxazin-3-one]
